Source: US20230399378A1, “PEPTIDE-BASED DELIVERY OF AGENTS” (THE FLOREY INSTITUTE OF NEUROSCIENCE AND MENTAL HEALTH, priority 2020, published 2023)
Square brackets hold non-standard residues; d marks the D form. Side chains are listed from the residue outwards. Peptide text beside a SMILES is read from it. * marks the point of attachment. Myristoyl = CCCCCCCCCCCCCC(=O)*; PMO = not defined here; AEEA = NCCOCCOCC(=O)O; Ahx = NCCCCCC(=O)O; Mpa = O=C(O)CCS

Assays:
fibroblasts = assay: Viability of fibroblasts by MTS assay (cytotoxicity); type: cell-based, human
Protocol: FIG. 5. Effect of the endosomal escape domain HA2 and lipidation of peptide-PMO conjugates on the viability of fibroblasts determined using MTS assay. UT, untreated control.
The peptide-PMO conjugates were tested up to 10 μM which is 10-fold greater than the concentration needed to achieve a high level of activity.

[1] = Serum stability in 50% human serum at 37 °C (RP-HPLC, one-phase decay half-life); conditions: for half-life at 500 µM: human, serum (50% human serum); for proteolytic stability compared to the parent L-peptides: 50% human serum, 37° C.
Protocol: Serum stability analysis was conducted for each peptide (7×50 nmol) shown in Table 3 in 50% human serum (100 μL) at 37° C. At the end of each time point (0, 10, 30, 60, 120, 240, and 480 min), 1 M guanidine hydrochloride solution (200 μL) and ice-cold acetonitrile (600 μL) were added, and the serum-peptide solution was centrifuged at 14000 g for 10 min. The supernatant was lyophilised and redissolved in water (200 μL). All samples were analysed by RP-HPLC in the presence of phenol (50 nmol) as an internal standard, using water and acetonitrile containing 0.1% TFA, with a gradient of 10-80% acetonitrile over 30 min, and a flow rate of 1.5 mL/min. The percentage of peptide remaining was measured based on the area under curve. The percentage of peptide remaining versus time data was fitted to a non-linear one-phase exponential decay model in GraphPad Prism 9.2.0 to determine the half-life for each peptide.

Row | Compound | half-life at 500 µM [1] [h] | effect on cell viability (fibroblasts; at 10 μM) | effect on cell viability (fibroblasts; up to 5 μM) | proteolytic stability compared to the parent L-peptides [1]
1 | Myr-GLFHAIAHFIHGGWH-X-LRKLRKRLLR-X-C-PMO ({Myristoyl-Gly-Leu-Phe-H2N-Ala-Ile-Ala-H2N-Phe-Ile-H2N-Gly-Gly-Trp-H2N-Ahx}-LRKLRKRLLR[Ahx]C-{PMO}; reading uncertain; also: printed as Myr-GLFHAIAHFIHGGWH-X-LRKLRKRLLR-X-C-PMO; UniProt P02649 159-168, looked up, fragment) [Myr-HA2-ApoE(141-150)-PMO] | – | decrease in cell viability | None of the P-PMO conjugates had a significant effect on cell viability | –
2 | CC[C@H](C)[C@H](NC(=O)[C@H](C)NC(=O)[C@H](Cc1c[nH]cn1)NC(=O)[C@H](Cc1ccccc1)NC(=O)[C@H](CC(C)C)NC(=O)CNC(C)=O)C(=O)N[C@@H](C)C(=O)N[C@@H](Cc1c[nH]cn1)C(=O)N[C@@H](Cc1ccccc1)C(=O)N[C@H](C(=O)N[C@@H](Cc1c[nH]cn1)C(=O)NCC(=O)NCC(=O)N[C@@H](Cc1c[nH]c2ccccc12)C(=O)N[C@@H](Cc1c[nH]cn1)C(=O)NCCOCCOCC(=O)N[C@@H](CCCCNC(=O)COCCOCCNC(=O)CCS)C(=O)NCCOCCOCC(=O)N[C@@H](CC(C)C)C(=O)N[C@@H](CCCNC(=N)N)C(=O)N[C@H](C(=O)N[C@@H](CCCNC(=N)N)C(=O)N[C@@H](CC(C)C)C(=O)N[C@@H](C)C(=O)N[C@@H](CO)C(=O)N[C@@H](Cc1c[nH]cn1)C(=O)N[C@@H](CC(C)C)C(=O)N[C@@H](CCCNC(=N)N)C(=O)N[C@@H](CCCCN)C(=O)N[C@@H](CC(C)C)C(=O)N[C@@H](CCCNC(=N)N)C(=O)N[C@@H](CCCCN)C(=O)N[C@@H](CCCNC(=N)N)C(=O)N[C@@H](CC(C)C)C(=O)N[C@@H](CC(C)C)C(=O)N[C@@H](CCCNC(=N)N)C(=O)O)C(C)C)[C@@H](C)CC [Br-HA2-(TPA)-ApoE(133-150), Ac-GLFHAIAHFIHGGWH-mPEG-K(mPEG-TPA)-mPEG-LRVRLASHLRKLRKRLLR] (Ac-GLFHAIAHFIHGGWH[AEEA]K([AEEA-Mpa])[AEEA]LRVRLASHLRKLRKRLLR-OH) | 1 | – | – | –
3 | Myr-GLFHAIAHFIHGGWH-X-LRVRLASHLRKLRKRLLR-X-C-PMO [Myr-HA2-ApoE(133-150)-PMO] | – | decrease in cell viability | None of the P-PMO conjugates had a significant effect on cell viability | –
4 | CC[C@@H](C)[C@@H](NC(=O)[C@@H](C)NC(=O)[C@@H](Cc1c[nH]cn1)NC(=O)[C@@H](Cc1ccccc1)NC(=O)[C@H](NC(=O)[C@@H](Cc1c[nH]cn1)NC(=O)CNC(=O)CNC(=O)[C@@H](Cc1c[nH]c2ccccc12)NC(=O)[C@@H](Cc1c[nH]cn1)NC(=O)COCCOCCNC(=O)CCS)[C@H](C)CC)C(=O)N[C@H](C)C(=O)N[C@H](Cc1c[nH]cn1)C(=O)N[C@H](Cc1ccccc1)C(=O)N[C@H](CC(C)C)C(=O)NCC(=O)NCCOCCOCC(=O)N[C@@H](CCCCN)C(=O)NCCOCCOCC(=O)N[C@H](CCCNC(=N)N)C(=O)N[C@H](CC(C)C)C(=O)N[C@H](CC(C)C)C(=O)N[C@H](CCCNC(=N)N)C(=O)N[C@H](CCCCN)C(=O)N[C@H](CCCNC(=N)N)C(=O)N[C@H](CC(C)C)C(=O)N[C@H](CCCCN)C(=O)N[C@H](CCCNC(=N)N)C(=O)N[C@H](CC(C)C)C(=O)N[C@H](Cc1c[nH]cn1)C(=O)N[C@H](CO)C(=O)N[C@H](C)C(=O)N[C@H](CC(C)C)C(=O)N[C@H](CCCNC(=N)N)C(=O)N[C@@H](C(=O)N[C@H](CCCNC(=N)N)C(=O)N[C@H](CC(C)C)C(=O)O)C(C)C [RI TPA-HA2-ApoE(133-150), TPA-mPEG-hwgghifhaiahflg-mPEG-K-mPEG-rllrkrlkrlhsalrvrl] ([Mpa][AEEA][dH][dW]GG[dH][dI][dF][dH][dA][dI][dA][dH][dF][dL]G[AEEA]K[AEEA][dR][dL][dL][dR][dK][dR][dL][dK][dR][dL][dH][dS][dA][dL][dR][dV][dR][dL]-OH) | 1.6 | – | – | significantly higher proteolytic stability

Second part, led by results:

Row | half-life at 500 µM [1] [h] | Compound | effect on cell viability (fibroblasts; at 10 μM) | effect on cell viability (fibroblasts; up to 5 μM) | proteolytic stability compared to the parent L-peptides [1]
5 | 11.2 | CC(C)C[C@@H](NC(=O)[C@@H](CCCNC(=N)N)NC(=O)[C@H](NC(=O)[C@@H](CCCNC(=N)N)NC(=O)[C@@H](CC(C)C)NC(=O)[C@@H](C)NC(=O)[C@@H](CO)NC(=O)[C@@H](Cc1c[nH]cn1)NC(=O)[C@@H](CC(C)C)NC(=O)[C@@H](CCCNC(=N)N)NC(=O)[C@@H](CCCCN)NC(=O)[C@@H](CC(C)C)NC(=O)[C@@H](CCCNC(=N)N)NC(=O)[C@@H](CCCCN)NC(=O)[C@@H](CCCNC(=N)N)NC(=O)[C@@H](CC(C)C)NC(=O)[C@@H](CC(C)C)NC(=O)[C@@H](CCCNC(=N)N)NC(=O)COCCOCCNC(=O)CCS)C(C)C)C(=O)O [RI TPA-ApoE(133-150), TPA-mPEG-rllrkrlkrlhsalrvrl] ([Mpa][AEEA][dR][dL][dL][dR][dK][dR][dL][dK][dR][dL][dH][dS][dA][dL][dR][dV][dR][dL]-OH) | – | – | significantly higher proteolytic stability
6 | 0.3 | CC[C@@H](C)[C@@H](NC(=O)[C@@H](C)NC(=O)[C@@H](Cc1c[nH]cn1)NC(=O)[C@@H](Cc1ccccc1)NC(=O)[C@H](NC(=O)[C@@H](Cc1c[nH]cn1)NC(=O)CNC(=O)CNC(=O)[C@@H](Cc1c[nH]c2ccccc12)NC(=O)[C@@H](Cc1c[nH]cn1)NC(C)=O)[C@H](C)CC)C(=O)N[C@H](C)C(=O)N[C@H](Cc1c[nH]cn1)C(=O)N[C@H](Cc1ccccc1)C(=O)N[C@H](CC(C)C)C(=O)NCC(=O)NCCOCCOCC(=O)N[C@@H](CCCCNC(=O)COCCOCCNC(=O)CCS)C(=O)NCCOCCOCC(=O)N[C@H](CCCNC(=N)N)C(=O)N[C@H](CC(C)C)C(=O)N[C@H](CC(C)C)C(=O)N[C@H](CCCNC(=N)N)C(=O)N[C@H](CCCCN)C(=O)N[C@H](CCCNC(=N)N)C(=O)N[C@H](CC(C)C)C(=O)N[C@H](CCCCN)C(=O)N[C@H](CCCNC(=N)N)C(=O)N[C@H](CC(C)C)C(=O)O [RI Br-HA2-(TPA)-ApoE(141-150), Ac-hwgghifhaiahflg-mPEG-K(mPEG-TPA)-mPEG-rllrkrlkrl] (Ac-[dH][dW]GG[dH][dI][dF][dH][dA][dI][dA][dH][dF][dL]G[AEEA]K([AEEA-Mpa])[AEEA][dR][dL][dL][dR][dK][dR][dL][dK][dR][dL]-OH) | – | – | –
